Reference: patent US20090306093A1, “METHOD FOR TREATING PATIENT HAVING BENIGN PROSTATE HYPERPLASIA” (KAOHSIUNG MEDICAL UNIVERSITY, priority 2008, published 2009)
Where “and” joins values, the source holds several entries; their conditions need not be identical. Equal entries are not always repeated.

Assays:
a1B-adrenoceptor = target: T1, a1B-adrenoceptor (Rattus norvegicus, UniProt P15823); assay: [3H]-prazosin competition binding, rat spleen membranes; details: read-out: Receptor Affinity (pKi) a1B (converted)
T1 construct: The submaxillary glands, spleen, and aorta of rats were separately homogenized; from tissue; host or cells: Wistar rat spleen membranes
T1 sequence (P15823 1-515): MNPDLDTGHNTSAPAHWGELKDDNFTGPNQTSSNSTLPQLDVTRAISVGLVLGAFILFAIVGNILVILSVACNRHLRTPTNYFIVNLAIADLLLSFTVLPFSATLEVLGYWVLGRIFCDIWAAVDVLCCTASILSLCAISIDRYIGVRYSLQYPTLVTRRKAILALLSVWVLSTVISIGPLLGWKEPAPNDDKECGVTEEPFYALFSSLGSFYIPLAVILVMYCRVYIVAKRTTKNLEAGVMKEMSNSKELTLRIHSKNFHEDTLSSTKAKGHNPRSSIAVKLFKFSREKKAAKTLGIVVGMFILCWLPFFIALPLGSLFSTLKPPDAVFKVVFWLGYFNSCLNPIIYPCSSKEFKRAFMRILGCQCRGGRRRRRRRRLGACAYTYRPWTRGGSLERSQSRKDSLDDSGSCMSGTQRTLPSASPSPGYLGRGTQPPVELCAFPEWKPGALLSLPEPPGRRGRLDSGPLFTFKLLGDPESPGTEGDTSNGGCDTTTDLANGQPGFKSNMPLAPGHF
Method: Wistar rats were obtained from National Laboratory Animal Breeding and Research Center (Taipei, Taiwan) and housed under a constant temperature and controlled illumination. The submaxillary glands, spleen, and aorta of rats were separately homogenized for 30 seconds with a Kinematica polytron in 20 volumes of ice-cold TE buffer (10 mM Tris HCl, 1 mM EDTA, 0.1 mM ascorbic acid, pH 7.4). The homogenate was filtered under pressure through muslin and the filtrate was centrifuged at 1,000 g for 10 minutes. The supernatant was centrifuged again at 10,000 g for 12 minutes at 4° C. The second supernatant was centrifuged at 30,000 g for 15 minutes at 4° C., and the final pellet was resuspended in the assay buffer (75 mM Tris HCl, 25 mM MgCl2, pH 7.4). Protein content was determined by Bradford's method.
[^3H]-prazosin, KMUP-1 and membranes (200-300 μg) were incubated for 60 minutes at 25° C. with or without the addition of nonspecific binding agents, in a 75 mM Tris HCl buffer with 25 mM MgCl2, making a final volume of 500 μL. In this experiment, non-specific binding was defined by use of 10 μM phentolamine. […] Membrane-bound radioligand trapped in the filters was counted in a Beckman LS6500 scintillation system (Fullerton, Calif.) with an efficiency of 45%. In each experiment, nonspecifically bound radioligand agents were measured by incubating membrane protein. […]

[1] = test system: PZ-HPV-7 human prostatic epithelial cells; assay: Cell proliferation, MTT assay; type: cell-based
Method: PZ-HPV-7, a human prostate epithelial cell line derived from normal peripheral zone tissue and transfected with human papillomavirus type 18, was obtained from the American Type Culture Collection (ATCC). Cells were grown in K-SFM medium supplemented with 100 U/mL penicillin, […], streptomycin 5 ng/ml, EGF human recombinant and 50 µg/mL BPE in 75-cm^2 flasks at 37° C. in a humidified atmosphere of […]. The culture medium was renewed every 2 days and cells were sub-cultured every 6 days. For the experiments, cells were seeded in 24-well plates at a density of 1×10^4 cells/well. After 24 hours and 48 hours, when cells were 80% confluent, KMUP-1 (1-100 μM) was added to the 24-well plates. Cell proliferation was measured using MTT assay (3-[4,5-dimethylthiazol-2-yl]-2,5-diphenyl-tetrazolium bromide, Sigma). The trypan blue […] exclusion assay was performed to determine the proportion of living and dead cells in 24 hours and 48 hours after treatment. After 24 hours and 48 hours of treatment with KMUP-1 (1-100 μM), attached cells were collected by trypsinization. Cells were counted in a hemocytometer using equal volume of cell suspension and trypan blue solution (0.2% in PBS).

[2] = test system: phenylephrine (10 μM) pre-contracted rat isolated prostate; assay: Relaxation of phenylephrine pre-contracted rat isolated prostate strips (isometric tension)
Method: The rat isolated prostate tissue was prepared as previously described with modifications^[10]. Briefly, Wistar rats (300-400 g) were killed with pentobarbital sodium (30 mg/kg) and the ventral part of their prostates were quickly excised. […] O2 and 5% CO2.
Isometric tension was recorded with a force displacement transducer (UGO BASILE, Model 7004, Italy). After the equilibration period, the strips were primed twice by adding 10 μM of the agonist, phenylephrine, to reach 80-100% of maximum contraction. […] The relaxation on rat prostate by KMUP-1 (0.01-100 μM) and tamsulosin (0.001 nM-100 μM) were also tested by their combination with sildenafil (0.1 μM), respectively. In isolated prostate strips, while stable constriction to phenylephrine was reached, sildenafil (0.1 μM) was pre-incubation for 30 minutes, before the cumulative addition of KMUP-1 (0.01-100 μM) or tamsulosin (0.001 nM-100 μM) to isolated prostate strips. In another experiment, to examine the possible mechanism of action of KMUP-1, rat prostates were pretreated with ODQ (1H-[1,2,4]oxadiazolo[4,3-a]quinoxalin-1-one, 10 μM, sGC inhibitor), RP-8pCPT-cGMPs (10 μM, PKG inhibitor), glibenclamide (10 μM, KATP channel blocker), 4-AP (4-aminopyridine, 100 μM, voltage-dependent K^+ channel blocker), apamin (1 μM, Ca^2+-dependent K^+ channel blocker) and charybdotoxin (ChTX) (0.1 μM, Ca^2+-dependent K^+ channel blocker) for 30 minutes before addition of KMUP-1 (100 μM).

Cn1c(=O)c2c(ncn2CCN2CCN(c3ccccc3Cl)CC2)n(C)c1=O [KMUP-1, 7-[2-[4-(2-Chlorobenzene)piperazinyl]ethyl]-1,3-dimethyl xanthine]
Ki (a1B-adrenoceptor): 115 nM | cell growth ([1]; 1 μM, 24 hours): 82.00±3.03 % of control | cell growth ([1]; 1 μM, 48 hours): 70.00±2.23 % of control | cell growth ([1]; 10 μM, 24 hours): 80.03±1.52 % of control | cell growth ([1]; 10 μM, 48 hours): 56.00±2.72 % of control | cell growth ([1]; 100 μM, 24 hours): 79.00±1.35 % of control | cell growth ([1]; 100 μM, 48 hours): 47.00±1.8 % of control | relaxation ([2]; 10 μM, 1 hour, phenylephrine 10 μM pre-contracted): 110.00±5.09% | relaxation activity ([2]; 100 μM combined with sildenafil 0.1 μM): 190.00±10.14% | relaxation ability ([2]; 100 μM, phenylephrine 10 μM pre-contracted): 179.00±5.35% and 179.00±5.3% | relaxation ([2]; KMUP-1 100 μM, pre-incubation with ODQ 10 μM): 112.50±7.84% | relaxation ([2]; KMUP-1 100 μM, pre-incubation with RP-8pCPT-cGMPs 10 μM): 128.00±4.41% | relaxation ([2]; KMUP-1 100 μM, with 4-AP 100 μM): 122.00±3.74% | relaxation ([2]; KMUP-1 100 μM, with apamin 1 μM): 126.00±9.09% | relaxation ([2]; KMUP-1 100 μM, with charybdotoxin 0.1 μM): 138.00±7.01% | relaxation ([2]; KMUP-1 100 μM, with glibenclamide 10 μM): 115.00±7.07%
